# Laboratory results reported in patent US9795649B2, “Sesquiterpenoid-based compounds, extracts of Cyperus rotundus comprising the same, and use thereof” (RESEARCH & BUSINESS FOUNDATION SUNGKYUNKWAN UNIVERSITY, priority 2013, dated 2017).
# Entries after “also recorded” stand apart in the source; their conditions may differ.
# Key:
# Type in all cases: cell-based
# MCF-7 bus cells [1] = assay: E-screen assay with co-treatment of tamoxifen (estrogen receptor antagonist); details: tamoxifen 10^−6M; FIGS. 5A and 5B
# Method: (§1) In detail, MCF-7-bus cells were cultured in a 5% FBS DMEM medium and seeded in a 48-well plate at a density of 5×10^3 cells/well. The cells were cultured in a CO2 incubator at 37° C. for 48 hours, and then washed with a phenol red-free medium twice. The test materials were diluted with 5% CD-FBS DMEM at different concentrations, and then cells were treated therewith. The concentration of the solvent was in principle adjusted to 0.1%. After culturing for 144 hours (6 days), cells were fixed to the plate with TCA (Trichloroacetic acid) solution. The cells thus fixed were stained with SRB (Sulforhodamin B) dye, and the SRB dye remaining in the plate was removed by washing with acetic acid. The bound SRB dye was eluted from the cells with tris-base solution, and absorbance at 490 nm was measured to calculate the amount of SRB dye. Finally, estrogenic actions of the test materials were confirmed.
# In detail, Tamoxifen is a representative estrogen receptor antagonist, and in this experiment, in order to examine whether the test materials show the estrogen receptor-mediated estrogenic actions, the test materials were mixed with tamoxifen (10^−6M) and MCF-7 bus cells were treated with the mixture to perform e-screen assay, and the results are shown in FIG. 5.
# MCF-7-bus cells = assay: E-screen assay for estrogenic activity; details: isolated compounds; FIGS. 4A and 4B
# Excerpt: E-screen assay is a method of measuring estrogenic action of a substance, i.e., a method of utilizing the growth effect of MCF-7-bus, a breast cancer cell line with endogenous estrogen receptors (ER) expressed therein, which is stimulated by an estrogenic substance. In the present invention, estrogenic activities of the methanol extract and the organic solvent fraction thereof, the ethanol extract and the column fraction thereof were examined by E-screen assay.
# as §1
# MCF-7 bus cells [2] = assay: E-screen assay with co-treatment of high or low concentration of estradiol (SERM function); details: for change in estrogenic activity by co-treatment of high concentration of estrogen: estradiol 10^−7M, FIGS. 6A and 6B; for change in estrogenic activity by co-treatment of low concentration of estrogen: estradiol 10^−13M, FIGS. 7A and 7B
# Method: as §1
# In detail, to examine whether the test materials function as an antagonist of estrogen at excessively high level of estrogen in the body, the test materials were mixed with high concentration of estradiol (10^−7M) and MCF-7 bus cells were treated with the mixture. To examine whether the test materials function as an agonist of estrogen at estrogen deficiency in the body, the test materials were mixed with a low concentration of estradiol (10^−13M) and MCF-7 bus cells were treated with the mixture. Then, e-screen assay was performed.
# RBL-2H3 cell line = assay: β-Hexosaminidase release assay for anti-allergic activity; details: Rattus norvegicus, 50 μg/ml, Mean ± SD, read-out: Degranulation-inhibitory activity (%, Mean ± SD)
# Method: β-Hexosaminidase release assay is an experiment for examining anti-allergic activity by activating the RBL-2H3 cell line with an activating factor, treating the activated cells with an antigen, and then measuring the amount of released β-hexosaminidase to examine inhibitory effect on degranulation, and this assay was performed as follows.
# In detail, the RBL-2H3 cell line was cultured in minimum essential media (hereinafter, referred to as EMEM) containing Eagle's salt supplemented with 15% fetal bovine serum and L-glutamine at 37° C. in a 5% CO2 incubator. Adherent cells were suspended by Trypsin-EDTA, and separated, recovered for use in the experiment. The RBL-2H3 cell line was activated with an activating factor (Dinitrophenol-conjugated human serum albumin, (DNP-HSA)-specific IgE), and then the activated cells were treated with 200 ng/mL of an antigen (DNP-HSA), and 0, 6.25, 12.5, 25, 50, or 100 μg/mL of the fraction of the extract of Cyperus rotundus was treated, respectively. Cells were incubated for 30 minutes. As a positive control, 50 μg/mL of ketotifen was used. Thereafter, the amount of β-hexosaminidase released to the medium was measured using a microplate spectrophotometer. Inhibition of β-hexosaminidase release means prevention of degranulation of immune cells.
Compound,estrogenic activity by co-treatment with tamoxifen (MCF-7 bus cells [1]),estrogenic activity (MCF-7-bus cells),change in estrogenic activity by co-treatment of high concentration of estrogen (MCF-7 bus cells [2]),change in estrogenic activity by co-treatment of low concentration of estrogen (MCF-7 bus cells [2]),inhibition at 50 µg/mL (RBL-2H3 cell line)
"C=C(C)[C@@H]1CC[C@@]2(C)CCC(=O)[C@@]3(C)O[C@@]23C1 [Compound [1], 4α,5α-oxidoeudesm-11-en-3-one]",remarkably reduced activities,excellent estrogenic activity; also recorded: high estrogenic activity,function as an estrogen inhibitor,function as an estrogen supplement,–
"C=C(C)C1CCC2(C)CCC(OC)C(C)=C2C1 (stereo not drawn) [Compound [6], 3α-methoxyeudesma-4,11-diene]",remarkably reduced activities,high estrogenic activity,function as an estrogen inhibitor,function as an estrogen supplement,41.7 ± 5.4%
"CN1CCC(=C2c3ccccc3CC(=O)c3sccc32)CC1 [Ketotifen, ketotifen, reference compound]",–,–,–,–,50.5 ± 2.28%
"cyper-11-ene-3,4-dione [Compound [2]]",remarkably reduced activities,high estrogenic activity,function as an estrogen inhibitor,function as an estrogen supplement,–
